{"source": "EPA's ToxValDB 9.5 (doi:10.2903/j.efsa.2007.108r)", "key": {"Anas platyrhynchos": {"test_system": "Anas platyrhynchos", "conditions": "short-term; oral; feed; mortality"}, "Apis mellifera": {"test_system": "Apis mellifera", "conditions": "acute; duration: 48 hours; oral; unspecified; mortality"}, "Daphnia magna": {"test_system": "Daphnia magna", "conditions": "chronic/long-term; duration: 21 days; reproduction"}, "Tagia sp.": {"test_system": "Tagia sp.", "conditions": "acute; duration: 14 days; mortality"}}, "note": "Several values for one entry are separate records, joined by “and”; a condition that tells them apart may be missing. Equal entries are not always repeated.", "data": [{"smiles": "Nc1cnn(-c2ccccc2)c(=O)c1Cl", "note": "[Chloridazon]", "values": [{"measurement": "LC50", "setting": "Anas platyrhynchos", "value": 1110, "unit": "mg/kg"}, {"measurement": "LD50", "setting": "Apis mellifera", "value": "> 200", "unit": "µg/piece"}, {"measurement": "LD50", "setting": "Colinus virginianus; acute, oral, mortality", "value": "≥ 2000", "unit": "mg/kg"}, {"measurement": "NOAEL", "setting": "Colinus virginianus; reproduction developmental, F", "value": 21.8, "unit": "mg/kg-day"}, {"measurement": "NOEC", "setting": "Daphnia magna", "value": 10, "unit": "mg/L"}, {"measurement": "LC50", "setting": "Oncorhynchus mykiss; acute, duration: 96 hours, mortality", "value": 41.3, "unit": "µg/mL"}, {"measurement": "NOEC", "setting": "Oncorhynchus mykiss; chronic/long-term, duration: 28 days, growth", "value": 3.16, "unit": "mg/L"}, {"measurement": "LD50", "setting": "Rattus norvegicus; acute, oral, F, mortality", "value": "2140 mg/kg and 825 mg/kg"}, {"measurement": "NOAEL", "setting": "Rattus norvegicus; chronic, duration: 2 years, body weight", "value": 13, "unit": "mg/kg-day"}, {"measurement": "NOAEL", "setting": "Rattus norvegicus; reproduction developmental, body weight", "value": 37, "unit": "mg/kg-day"}, {"measurement": "NOAEL", "setting": "Rattus norvegicus; reproduction developmental, reproduction", "value": 37, "unit": "mg/kg-day"}, {"measurement": "NOAEL", "setting": "Rattus norvegicus; subchronic, duration: 90 days, oral, body weight", "value": 21, "unit": "mg/kg-day"}, {"measurement": "LC50", "setting": "Tagia sp.", "value": "> 1000", "unit": "mg/kg"}]}]}
